# Data as given in patent US7056940B2, “Insecticidal 3-(2,6-disubstituted phenyl)-5-[5-arylthien-2-yl]-1,2,4-triazoles” (Dow AgroSciences LLC, priority 2001, dated 2006).
# Columns and labels:
# [1] = system: Cabbage Looper (Trichoplusia ni); assay: Insecticidal test for cabbage looper, treated cabbage leaf disc; assay type: in vivo; conditions: cabbage leaf-dip, 2nd instar larvae, 5 days
# [2] = system: Tobacco Budworm (Heliothis virescens); assay: Insecticidal test for tobacco budworm, treated cotton cotyledon leaf disc; assay type: in vivo; design: key: A: 90–100; B: 80–89; C: 70–79; D: 60–69; E: 50–59; F: less than 50; G: Inactive; conditions: cotton cotyledon leaf-dip, 2nd instar larvae, 5 days
# [3] = system: Cotton Aphid (Aphis gossypii); assay: Insecticidal test for cotton aphid, spray on infested squash cotyledons; assay type: in vivo; conditions: 50 ppm spray, 3 days
# Procedure, shortened: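 Squash cotyledons were infested with all aphid life stages 16–20 h beforehand, then sprayed on both sides to runoff with 50 ppm compound (acetone:ethanol, 0.05% Tween 20). After 3 days at 26 °C and 40% RH, aphids were counted under a microscope, and percent control is population reduction versus untreated.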
# [4] = system: Sweetpotato Whitefly (Bemisia tabacia); assay: Insecticidal test for sweetpotato whitefly, spray on cotton plants; assay type: in vivo; conditions: 200 ppm spray, 13 days, large nymphs
# Procedure, shortened: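 Five-week cotton plants trimmed to two leaves carried 2 days of whitefly oviposition, then adults were removed. Leaves were sprayed top and bottom with 200 ppm compound in water with 0.05% Tween 20 (acetone:ethanol co-solvent), four replicates. After 13 days at 28° C/60% RH, 3rd–4th instar nymphs were counted; percent control versus solvent-only sprayed plants.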
# [5] = system: Two-spotted Spider Mite (Tetranychus urticae); assay: Insecticidal test for two-spotted spider mite, ovicide method; assay type: in vivo; conditions: cotton leaf discs, 6 days
# Procedure, shortened: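 Cotton leaf discs (eight, 2.2 cm each) received ten adult female two-spotted spider mites, which laid eggs for 24 hours before being taken off. The discs were then set on an agar substrate and kept at 24° C. and 90% RH for 6 days to assess ovicidal control.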
# [6] = system: Beet Armyworm (Spodoptera exigua); assay: Insecticidal test for beet armyworm, treated lepidopteran diet; assay type: in vivo; design: key: A: 90–100; B: 80–89; C: 70–79; D: 60–69; E: 50–59; F: less than 50; G: Inactive; conditions: on diet surface, second-instar larvae, 5 days
# Procedure, shortened: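 Test compound formulated at 400 ppm in 2:1 acetone:tap water; 250 μL applied onto surface of modified Shorey lepidopteran diet, five cups per compound (one cup = one replicate). After solvent air-dried, one second-instar larva placed on treated diet per cup.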
smiles,measurement,setting,value
"Cc1c(-c2nc(-c3c(F)cccc3Cl)nn2C)csc1-c1ccc(OC(F)(F)F)cc1 [Example 1, 3-(2-Chloro-6-fluorophenyl)-5-[4-methyl-5-(4-trifluoromethoxyphenyl)thien-3-yl]-1-methyl-1H-1,2,4-triazole]",melting point,,124 to 125 °C
"Cn1nc(-c2c(F)cccc2Cl)nc1-c1cc(-c2cccc(C(F)(F)F)c2)sc1Cl [Example 2, 3-(2-Chloro-6-fluorophenyl)-5-[2-chloro-5-(3-trifluoromethylphenyl)thien-3-yl]-1-methyl-1H-1,2,4-triazole]",melting point,,53 to 54 °C
"Cn1nc(-c2c(F)cccc2Cl)nc1-c1cc(-c2ccc(OC(F)(F)F)cc2)sc1Br [Example 3, 3-(2-Chloro-6-fluorophenyl)-5-[2-bromo-5-(4-trifluoromethoxyphenyl)thien-3-yl]-1-methyl-1H-1,2,4-triazole]",melting point,,135 to 136 °C
"Cc1sc(-c2ccc(OC(F)(F)F)cc2)cc1-c1nc(-c2c(F)cccc2Cl)nn1C [Example 4, 3-(2-Chloro-6-fluorophenyl)-5-[2-methyl-5-(4-trifluoromethoxyphenyl)thien-3-yl]-1-methyl-1H-1,2,4-triazole]",melting point,,153 to 155 °C
"Cc1c(-c2nc(-c3c(F)cccc3Cl)nn2C)csc1-c1ccc(OC(F)(F)C(F)C(F)(F)F)cc1 (centres unmarked) [Example 7, 3-(2-Chloro-6-fluorophenyl)-5-{5-[4-(1,1,2,3,3,3-hexafluoropropoxy)phenyl]-4-methylthien-3-yl}-1-methyl-1H-1,2,4-triazole]",melting point,,114 to 116 °C
Cc1c(-c2nc(-c3c(F)cccc3Cl)nn2C)csc1-c1ccc(F)cc1F [drawing 233],CL: activity at 400 ppm against cabbage looper (% control rating),[1],A (90–100)
same,TBW: activity at 400 ppm against tobacco budworm (% control rating),[2],G
same,CA: activity at 50 ppm against cotton aphid (% control rating),[3],B (80–89)
same,WF: activity at 200 ppm against whitefly (% control rating),[4],F (less than 50)
same,SM: activity against two-spotted spider mite (% control rating),[5],B (80–89)
same,BAW: activity at 400 ppm against beet armyworm (% control rating),[6],G
